Measured values taken from patent US10787434B2, “Benzopiperdine derivatives and their use in the treatment of cancer and hemoglobinopathies” (CTXT PTY LTD, priority 2016, dated 2020).
Where a name gives a salt, the structure may show the parent alone.

Assays:
[1] = test system: symmetrical dimethylation of arginine (Di-Methyl Histone H4 Arginine 3) in cell line TE11; assay: PRMT5 Biomarker Assay; assay type: cell-based; details: Homo sapiens, TE-11; TE11 cells, 72 hours incubation, mean Alexa647-related intensity per cell
Protocol: PRMT5 Biomarker Assay Compounds of the invention may be tested for potency to inhibit symmetrical dimethylation of arginine in the following assay: The cell line TE11 was seeded at a density of 6,000 cells per well in 96 well optical quality tissue culture plates in DME medium and 10% foetal bovine serum, and allowed to adhere for 5 hours under standard culture conditions (37 degree Celsius, 5% CO2). Compound dilutions prepared in DMSO were added to the medium, with negative control wells reserved for treatment with DMSO only and maximum inhibition controls receiving a potent PRMT5 inhibitor compound at 1 μM concentration. After incubation for 72 hours, the cells were fixed with 3.7% formaldehyde in PBS for 30 minutes at room temperature, washed with phosphate buffer saline and blocked with Odyssey blocking buffer (LI-COR, Lincoln, Nebr.). Rabbit anti-Di-Methyl Histone H4 Arginine 3 specific antibody (Epigentek) in Odyssey blocking buffer was added and incubated for 14 hours at 4 degree Celsius. After washing, anti-rabbit secondary antibody labelled with Alexa647 dye (LifeTechnologies) and Hoechst 33342 (1 μg/mL, SigmaAldrich) were added for 1 hour incubation. Plates were washed and read on a PerkinElmer Envision 2103 in fluorescence intensity scanning mode (24 scans across the well area). The plates were imaged on a PerkinElmer Phenix high content imaging platform. Using a Columbus image analysis pipeline, individual nuclei were located by Hoechst 33342 stain and the methylation level was calculated from the Alexa647-related intensity in the same area. IC50 values were obtained from the mean Alexa647-related intensity per cell by calculating percent inhibition (%1) for each well relative to controls on the same plate (% l=(1-CN)/(CP−CN) where CN/CP are the averages of the negative/maximum inhibition controls, respectively), then fitting the %1 data vs. compound concentration [I] to % I=(A+((B−A)/(1+((C/[I])^D)))) where A is the lower asymptote, B is the upper asymptote, C is the IC50 value, and D is the slope.

[2] = molecular target: Full-length PRMT5 enzyme co-expressed with His6-MEP50 (Homo sapiens (Human), UniProt O14744); assay: PRMT5 Biochemical Assay; details: Transcreener EPIGEN methyltransferase assay, histone H4 derived peptide substrate, 4 hours at 37 degree Celsius
Full-length PRMT5 enzyme co-expressed with His6-MEP50, sequence (O14744 whole entry): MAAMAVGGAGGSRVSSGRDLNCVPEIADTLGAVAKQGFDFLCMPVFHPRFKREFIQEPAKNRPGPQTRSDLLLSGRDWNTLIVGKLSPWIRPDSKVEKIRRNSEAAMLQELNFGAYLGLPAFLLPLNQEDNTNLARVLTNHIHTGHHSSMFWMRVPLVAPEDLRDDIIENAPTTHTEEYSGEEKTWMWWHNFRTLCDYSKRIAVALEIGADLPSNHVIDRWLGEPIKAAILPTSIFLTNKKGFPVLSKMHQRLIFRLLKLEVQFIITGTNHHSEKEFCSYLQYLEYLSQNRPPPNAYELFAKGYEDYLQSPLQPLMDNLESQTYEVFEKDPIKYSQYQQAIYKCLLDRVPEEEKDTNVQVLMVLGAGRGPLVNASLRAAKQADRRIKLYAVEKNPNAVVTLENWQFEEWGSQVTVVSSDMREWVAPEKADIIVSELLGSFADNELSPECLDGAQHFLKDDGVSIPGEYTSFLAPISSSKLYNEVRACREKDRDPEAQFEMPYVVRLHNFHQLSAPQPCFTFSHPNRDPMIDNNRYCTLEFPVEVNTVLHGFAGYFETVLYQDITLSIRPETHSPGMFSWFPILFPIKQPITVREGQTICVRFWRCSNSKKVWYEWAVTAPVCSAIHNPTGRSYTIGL
Full-length PRMT5 enzyme co-expressed with His6-MEP50, sequence (Q9BQA1 whole entry partner): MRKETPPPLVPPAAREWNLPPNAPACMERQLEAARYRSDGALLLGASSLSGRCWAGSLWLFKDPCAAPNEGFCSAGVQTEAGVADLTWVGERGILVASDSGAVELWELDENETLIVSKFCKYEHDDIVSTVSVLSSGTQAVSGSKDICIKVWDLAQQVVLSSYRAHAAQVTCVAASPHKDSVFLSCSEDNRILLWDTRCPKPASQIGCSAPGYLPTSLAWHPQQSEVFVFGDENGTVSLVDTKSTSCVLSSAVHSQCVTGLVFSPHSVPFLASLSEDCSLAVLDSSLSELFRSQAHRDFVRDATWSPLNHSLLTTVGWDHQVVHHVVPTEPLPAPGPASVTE
Protocol: Compounds of the invention may be tested for in vitro activity in the following assay:
A histone H4 derived peptide is used as substrate (amino acid sequence: […]NH2). Full-length PRMT5 enzyme (NCBI Reference sequence NP_006100.2) was co-expressed with His6-MEP50 in insect cells and purified via Nickel immobilized metal affinity and gel filtration chromatography (“the enzyme”).
The 6 μL reactions are run in Greiner brand black 384-well low volume assay plates. All reactions contained assay buffer (phosphate buffered saline, 0.01% (v/v) Tween-20, 0.01% (w/v) albumin from chicken egg white, 1 mM Dithiothreitol, 1 μM peptide substrate, 1 μM S-Adenosyl methionine, and 15 ng/reaction enzyme, with the enzyme being omitted from negative control reactions. Compounds were added in a volume of 100 nL from dilution series prepared in DMSO, positive and negative control reactions receiving the same volume DMSO without compound. The plates were sealed with adhesive seals and incubated for 4 hours at 37 degree Celsius. Reaction progress was measured using the Transcreener™ EPIGEN methyltransferase assay (BellBrook Labs, Madison, Wis.) as recommended by the manufacturer. To each reaction 2 μL detection mix were added, containing coupling enzymes, fluorescence polarisation tracer, and AMP antibody. Plates were incubated for 90 minutes before being read on a PerkinElmer EnVision™ plate reader in fluorescence polarisation mode. IC50 values were obtained from the raw readings by calculating percent inhibition (%1) for each reaction relative to controls on the same plate (% I=(I−CN)/(CP−CN) where CN/CP are the averages of the negative/positive reactions, respectively), then fitting the %1 data vs. compound concentration [I] to % I=(A+((B−A)/(1+((C/[I])^D)))) where A is the lower asymptote, B is the upper asymptote, C is the IC50 value, and D is the slope.

| Compound | IC50 [1] | IC50 [2] |
| --- | --- | --- |
| CCOc1nc(N2CCN(C(=O)OC)CC2)ccc1C(=O)NC[C@@H](O)[C@@H]1Cc2ccccc2CN1 [Example 1, Methyl 4-(6-ethoxy-5-(((R)-2-hydroxy-2-((S)-1,2,3,4-tetrahydroisoquinolin-3-yl)ethyl)carbamoyl)pyridin-2-yl)piperazine-1-carboxylate dihydrochloride] | 0.2 nM | 37 nM |
| CCOc1nc(N2CCC(O)CC2)ccc1C(=O)NC[C@@H](O)[C@@H]1Cc2ccccc2CN1 [Example 2, 2-Ethoxy-N-((R)-2-hydroxy-2-((S)-1,2,3,4-tetrahydroisoquinolin-3-yl)ethyl)-6-(4-hydroxypiperidin-1-yl)nicotinamide dihydrochloride] | 23.3 nM | 102 nM |
| CCOc1nc(N2CCCOCC2)ccc1C(=O)NC[C@@H](O)[C@@H]1Cc2ccccc2CN1 [Example 3, 2-Ethoxy-N-((R)-2-hydroxy-2-((S)-1,2,3,4-tetrahydroisoquinolin-3-yl)ethyl)-6-(1,4-oxazepan-4-yl)nicotinamide dihydrochloride] | 5.6 nM | 70 nM |
| CCOc1nc(N2CCN(C(C)=O)CC2)ccc1C(=O)NC[C@@H](O)[C@@H]1Cc2ccccc2CN1 [Example 4, 6-(4-Acetylpiperazin-1-yl)-2-ethoxy-N-((R)-2-hydroxy-2-((S)-1,2,3,4-tetrahydroisoquinolin-3-yl)ethyl)nicotinamide dihydrochloride] | 1.3 nM | 26 nM |
| CC(=O)N1CCC(Oc2nccc(C(=O)NC[C@@H](O)[C@@H]3Cc4ccccc4CN3)c2Cl)CC1 [Example 5, 2-((1-Acetylpiperidin-4-yl)oxy)-3-chloro-N-((R)-2-hydroxy-2-((S)-1,2,3,4-tetrahydroisoquinolin-3-yl)ethyl)isonicotinamide dihydrochloride] | 6 nM | 26 nM |
| CCOc1cnc(CC2CCN(C(C)=O)CC2)cc1C(=O)NC[C@@H](O)[C@@H]1Cc2ccccc2CN1 [Example 6, 2-((1-acetylpiperidin-4-yl)methyl)-5-ethoxy-N-((R)-2-hydroxy-2-((S)-1,2,3,4-tetrahydroisoquinolin-3-yl)ethyl)isonicotinamide dihydrochloride] | 75.4 nM | 202 nM |
| CCOc1nc(OC2CCN(C(C)=O)CC2)ccc1C(=O)NC[C@@H](O)[C@@H]1Cc2ccccc2CN1 [Example 7, 6-((1-acetylpiperidin-4-yl)oxy)-2-ethoxy-N-((R)-2-hydroxy-2-((S)-1,2,3,4-tetrahydroisoquinolin-3-yl)ethyl)nicotinamide hydrochloride salt] | 16.5 nM | 135 nM |
| CCOc1c(C(=O)NC[C@@H](O)[C@@H]2Cc3ccccc3CN2)ccnc1NC1CCN(C(C)=O)CC1 [Example 8, 2-((1-Acetylpiperidin-4-yl)amino)-3-ethoxy-N—((R)-2-hydroxy-2-((S)-1,2,3,4-tetrahydroisoquinolin-3-yl)ethyl)isonicotinamide Dihydrochloride Salt] | 112 nM | 135 nM |
| CCOc1nc(N2CCOCC2)ccc1C(=O)NC[C@@H](O)[C@@H]1Cc2ccccc2CN1 [Example 9, 2-Ethoxy-N—((R)-2-hydroxy-2-((S)-1,2,3,4-tetrahydroisoquinolin-3-yl)ethyl)-6-morpholinonicotinamide] | 31.5 nM | 251 nM |
